Assay results taken from article PMC6508865, “Dynamics of thymol dietary supplementation in quail (Coturnix japonica): Linking bioavailability, effects on egg yolk total fatty acids and performance traits” (PLoS ONE, 2019).

Test system: female Japanese quail (Coturnix japonica)
Experiment: Total fatty acid analysis in egg yolks (GC/MS of FAME)
Type: in vivo
Conditions: for egg yolk SFA reduction disappeared after post-supplementation / persistence of reduced egg yolk 16:0 concentration after post-supplementation / persistence of reduced egg yolk 18:0 concentration after post-supplementation: 21 days of pS
Excerpt: All birds continued receiving a basal diet between 85 and 100 days of age and all variables (see below for details) were registered along this period (Pre-supplementation period, Fig 1). […] Once finished the S period, half of the quail were slaughtered for histological analysis (n = 25; Slaughter 1, Fig 1) and the other half were subjected to a pS period of 21 days, during which all females received the BASAL diet (pS, Fig 1). After this period, the remaining 25 animals were also slaughtered for histological analysis (Slaughter 2, Fig 1). In this way, we assessed whether THY induced changes in variables indicative of tissue damage and if so, whether the potential damages could reverse after 3 weeks of supplement withdrawal.
To assess changes in egg yolk total FA composition, egg physical characteristics, laying rate, body weight, feed intake and general welfare, during the S and pS periods, five sampling points were defined (Sample points, Fig 1): one initial sample point (at 0 days of S); three sample points during the S period (at 7, 14 and 28 days of S); and one sample point at the end of the pS period (21 days of pS). It should be noted that for determinations of THY concentration, eggs and quail droppings were collected offset from the other variables measured by 2 days, thus were collected on days 2, 9, 16, and 26 days of S, and 17 days of pS, respectively.
Eggs were obtained at each sample point (Sample points, Fig 1) and stored at -20°C until yolk total fatty acids analysis. Lipids were extracted from the yolk following homogenization in a suitable excess of chloroform/methanol (2:1 v/v). The solvents were removed under reduced pressure in a rotary evaporator. Lipids were subjected to alkaline saponification (1 mol/L potassium hydroxide in methanol), and the unsaponifiable matter was extracted with n-hexane. The fatty acid methyl esters (FAMEs) were prepared by transmethylation through treatment with 1 mol/L sulfuric acid in methanol and analyzed by gas chromatography/mass spectrometry (GC/MS). All chemicals used in this study were reagent-grade commercial products. FAMEs were analyzed by gas chromatography on a 60 m fused capillary column with an internal diameter of 0.25 mm (PerkinElmer Elite-WAX Polyethylene Glycol). The analysis was performed on a PerkinElmer Clarus® 600 GC/MS system equipped with a flame ionization detector (Waltham, MA, USA). […] The injection port temperature was 250°C and the detector temperature was 250°C. […] Peak identification was carried out by comparing the known retention times for the fatty acids reported with the temperature program and the chromatographic system used.

[1] = THY6, 6.25 g of thymol/kg of feed
[2] = all THY supplemented diets (2, 4, 6.25 g/kg of feed)

Cc1ccc(C(C)C)c(O)c1 [THY, 2 isopropyl-5-methylphenol]
effect on egg yolk MUFA (2, 4, 6.25 g of thymol/kg of feed, diet, time of sampling or interaction): No differences
supplementation time by which reduced egg yolk 16:0 (palmitic acid) concentration was achieved (THY2, 2 g of thymol/kg of feed): 28 days of S
supplementation time by which reduced egg yolk 18:0 (stearic acid) concentration was achieved (THY2, 2 g of thymol/kg of feed): 28 days of S
supplementation time required for increasing egg yolk 22:5 (docosapentaenoic acid) (THY2, 2 g of thymol/kg of feed): 14 days of S
supplementation time required to reduce egg yolk SFA concentration (THY2, 2 g of thymol/kg of feed): 28 days of S
egg yolk SFA reduction disappeared after post-supplementation (THY2, 2 g of thymol/kg of feed): disappeared
persistence of reduced egg yolk 16:0 concentration after post-supplementation (THY2, 2 g of thymol/kg of feed): returned to initial levels
persistence of reduced egg yolk 18:0 concentration after post-supplementation (THY2, 2 g of thymol/kg of feed): continued
effect on egg yolk PUFA concentration (THY2, 2 g of thymol/kg of feed, S period): failed to increase PUFA
effect on egg yolk 16:1 (palmitoleic acid) (THY2, 2 g of thymol/kg of feed, by 7 and 14 days of S): transient decrease
day of supplementation by which egg yolk polyunsaturated fatty acids increased (THY4, 4 g of thymol/kg of feed): 14 day of supplementation
supplementation time by which reduced egg yolk 16:0 (palmitic acid) concentration was achieved (THY4, 4 g of thymol/kg of feed): 14 days of S
supplementation time by which reduced egg yolk 18:0 (stearic acid) concentration was achieved (THY4, 4 g of thymol/kg of feed): 14 days of S
supplementation time from which egg yolk 18:3 (linolenic acid) concentration was higher (THY4, 4 g of thymol/kg of feed): 14 days of S
supplementation time from which egg yolk 20:4 (arachidonic acid) concentration was higher (THY4, 4 g of thymol/kg of feed): 14 days of S
supplementation time required for increasing egg yolk 22:5 (docosapentaenoic acid) (THY4, 4 g of thymol/kg of feed): 14 days of S
supplementation time required to reduce egg yolk SFA concentration (THY4, 4 g of thymol/kg of feed): 14 days of S
egg yolk SFA reduction disappeared after post-supplementation (THY4, 4 g of thymol/kg of feed): not
persistence of reduced egg yolk 16:0 concentration after post-supplementation (THY4, 4 g of thymol/kg of feed): continued
persistence of reduced egg yolk 18:0 concentration after post-supplementation (THY4, 4 g of thymol/kg of feed): continued
effect on egg yolk PUFA concentration (THY4, 4 g of thymol/kg of feed, S period and 21 days of pS): induced PUFA increments that remained enhanced even at 21 days of pS
effect on egg yolk 16:1 (palmitoleic acid) (THY4, 4 g of thymol/kg of feed, at 21 days of pS): transient decrease
day of supplementation by which egg yolk polyunsaturated fatty acids increased [1]: 14 day of supplementation
supplementation time by which reduced egg yolk 16:0 (palmitic acid) concentration was achieved [1]: 14 days of S
supplementation time by which reduced egg yolk 18:0 (stearic acid) concentration was achieved [1]: 14 days of S
supplementation time from which egg yolk 18:3 (linolenic acid) concentration was higher [1]: 14 days of S
supplementation time from which egg yolk 20:4 (arachidonic acid) concentration was higher [1]: 14 days of S
supplementation time required for increasing egg yolk 22:5 (docosapentaenoic acid) [1]: 7 days of S
egg yolk SFA reduction disappeared after post-supplementation [1]: not
persistence of reduced egg yolk 16:0 concentration after post-supplementation [1]: continued
persistence of reduced egg yolk 18:0 concentration after post-supplementation [1]: returned to initial levels
effect on egg yolk PUFA concentration (THY6, 6.25 g of thymol/kg of feed, S period and 21 days of pS): induced PUFA increments that remained enhanced even at 21 days of pS
effect on egg yolk 16:1 (palmitoleic acid) (THY6, 6.25 g of thymol/kg of feed, at 21 days of pS): transient decrease
supplementation time required to reduce egg yolk SFA concentration (THY6, 6.25 g of thymol/kg of feed, reduction of even greater magnitude): 14 days of S
supplementation time from which egg yolk 20:5 (eicosapentaenoic acid) was increased [2]: 7 days of S
supplementation time from which egg yolk 22:6 (docosahexaenoic acid) was increased [2]: 7 days of S
